± gives the standard deviation of the averaged measurements.
Columns and labels:
YST-1 [1] = experiment: drug sensitivity score (DSS, CellTiter-Glo viability, 72 h) (DSS (dimensionless)); higher = more sensitive; extreme values may be limits of the assay
Method in brief: (§1)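 MPNST cell lines and primary human Schwann cells were seeded at 750–1000 cells per well into 384-well plates preprinted with each compound at five concentrations in 10-fold steps, then incubated 72 h at 37 °C, 5% CO2. CellTiter-Glo ATP luminescence gave viability, scaled between vehicle and positive-control wells, with duplicates averaged where present. Curves were fitted with a four-parameter logistic model. Percent inhibition refers to the top concentration, while drug sensitivity score and relative IC50, censored at the top concentration, come from these fits.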

ST8814 [2] = experiment: as above
Method in brief: as §1

HS-PSS [3] = experiment: as above
Method in brief: as §1

S462 [4] = experiment: as above
Method in brief: as §1

HS-Sch-2 [5] = experiment: as above
Method in brief: as §1

STS26T [6] = experiment: as above
Method in brief: as §1

[7] = tested on: HSC1 (primary human Schwann cells); experiment: as above
Method in brief: as §1

S1507-2 [8] = experiment: as above
Method in brief: as §1

[9] = tested on: HSC2 (primary human Schwann cells); experiment: as above
Method in brief: as §1

ST8814 [10] = experiment: drug sensitivity score (DSS, CellTox-Green cytotoxicity, 72 h) (DSS (dimensionless)); higher = more cytotoxic; extreme values may be limits of the assay
Method in brief: (§2)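 For 72 h at 37 °C, MPNST cell lines and primary human Schwann cells were exposed in 384-well plates to five 10-fold compound dilutions. CellTox-Green, added before seeding at a final 1:1000 dilution, gave fluorescence from DNA released by disrupted cells. Signals were scaled to vehicle and positive-control wells, cultures failing plate quality control were left out, and four-parameter logistic fits were applied. Relative IC50 and drug sensitivity score were derived from the fits, with IC50 censored at the top concentration.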

HS-PSS [11] = experiment: as above
Method in brief: as §2

STS26T [12] = experiment: as above
Method in brief: as §2

[13] = tested on: HSC1 (primary human Schwann cells); experiment: as above
Method in brief: as §2

S1507-2 [14] = experiment: as above
Method in brief: as §2

[15] = tested on: HSC2 (primary human Schwann cells); experiment: as above
Method in brief: as §2

YST-1 [16] = experiment: % inhibition of CellTiter-Glo viability at highest tested concentration (72 h), relative to DMSO and benzethonium chloride controls; higher = more inhibition
Method in brief: as §1

ST8814 [17] = experiment: as above
Method in brief: as §1

HS-PSS [18] = experiment: as above
Method in brief: as §1

S462 [19] = experiment: as above
Method in brief: as §1

HS-Sch-2 [20] = experiment: as above
Method in brief: as §1

STS26T [21] = experiment: as above
Method in brief: as §1

[22] = tested on: HSC1 (primary human Schwann cells); experiment: as above
Method in brief: as §1

S1507-2 [23] = experiment: as above
Method in brief: as §1

[24] = tested on: HSC2 (primary human Schwann cells); experiment: as above
Method in brief: as §1

SMILES | drug sensitivity score (YST-1 [1]) | drug sensitivity score (ST8814 [2]) | drug sensitivity score (HS-PSS [3]) | drug sensitivity score (S462 [4]) | drug sensitivity score (HS-Sch-2 [5]) | drug sensitivity score (STS26T [6]) | drug sensitivity score [7] | drug sensitivity score (S1507-2 [8]) | drug sensitivity score [9] | drug sensitivity score (ST8814 [10]) | drug sensitivity score (HS-PSS [11]) | drug sensitivity score (STS26T [12]) | drug sensitivity score [13] | drug sensitivity score (S1507-2 [14]) | drug sensitivity score [15] | % inhibition (YST-1 [16]) [%] | % inhibition (ST8814 [17]) [%] | % inhibition (HS-PSS [18]) [%] | % inhibition (S462 [19]) [%] | % inhibition (HS-Sch-2 [20]) [%] | % inhibition (STS26T [21]) [%] | % inhibition [22] [%] | % inhibition (S1507-2 [23]) [%] | % inhibition [24] [%]
CCCc1cc(C)[nH]c(=O)c1CNC(=O)c1cc(-c2ccnc(N3CCN(C)CC3)c2)cc2c1cnn2C(C)C [GSK343] (max concentration tested 10000 nM) | 1.05 | 5.22 | 5.59 | 2.58 ± 1.2 | 4.46 | 3.88 | 4.34 | 5.498 ± 0.026 | 2.64 | 5.69 | 5.71 | 6.48 | 0 | 6.1 ± 1.5 | 0 | 33.9 | 94.4 | 94.3 | 49.6 ± 14 | 95.9 | 84.1 | 47 | 86 ± 10 | 34.4
Nc1ncnc2c1nc(Cl)n2[C@@H]1O[C@H](CO)[C@@H](O)[C@H]1O [8-chloro-adenosine] (max concentration tested 50000 nM) | 12.9 | 9.48 | 5.54 | 14.21 ± 0.085 | 11.1 | 12.3 | 9.38 | 12.4 ± 2.1 | 9.83 | 0.449 | 0 | 6.31 | 0 | 1.46 ± 1.7 | 0 | 88.6 | 54.5 | 55.6 | 82.1 ± 4.6 | 80 | 86.8 | 73.8 | 74 ± 0.56 | 73.7
COc1cc(O)c2c(c1)/C=C/C[C@H](O)[C@H](O)C(=O)/C=C\C[C@H](C)OC2=O [(5Z)-7-Oxozeaenol] (max concentration tested 10000 nM) | 1.67 | 7.1 | 1.02 | 6.71 ± 1.1 | 2.24 | 6.93 | 6.52 | 3.4 ± 0.83 | 7.92 | 0.979 | 0 | 2.39 | 0.659 | 2.79 ± 3 | 1.01 | 26.6 | 70.6 | 29.8 | 74.1 ± 6.8 | 39.8 | 68.6 | 73.1 | 51.8 ± 16 | 76.9
CCc1c(C(=O)C(N)=O)c2c(OCC(=O)O)cccc2n1Cc1ccccc1 [Varespladib] (max concentration tested 10000 nM) | 0 | 0 | 0 | 0.641 ± 0.91 | 0 | 0 | 0.748 | 0.0077 ± 0.011 | 0 | 0 | 0 | 0 | 0 | 0.519 ± 0.73 | 0 | 3.3 | 5.74 | 4.52 | 7.05 ± 10 | 0.4 | 7.98 | 13.8 | 6.19 ± 5.8 | 9.85
CC(C)C[C@@H](C(=O)N[C@H](C(=O)OC1CCCC1)c1ccccc1)[C@H](O)C(=O)NO [Tosedostat] (max concentration tested 10000 nM) | 4.41 | 2.24 | 0.92 | 8.03 ± 0.91 | 11 | 18.2 | 9.82 | 3.83 ± 0.36 | 12.3 | 2.29 | 0 | 28.6 | 0 | 10.4 ± 9.7 | 0 | 28.4 | 28 | 25 | 55 ± 3.6 | 64.9 | 74.9 | 50.1 | 26.2 ± 6.2 | 54.6
COc1cc2nccc(Oc3ccc(NC(=O)C4(C(=O)Nc5ccc(F)cc5)CC4)cc3)c2cc1OC [Cabozantinib] (max concentration tested 1000 nM) | 0 | 2.2 | 1.89 | 0.552 ± 0.78 | 0.13 | 0.238 | 0.225 | 4.78 ± 0.14 | 0 | 0 | 0 | 0 | 0 | 0 | 0 | 0.14 | 21.3 | 23 | 14 ± 4.9 | 10.9 | 13.4 | 13.2 | 27.7 ± 7.5 | 8.9
Cc1c(Cn2c(C)nc3c(C(=O)O)cc(N4CCOCC4)cc32)cccc1C(F)(F)F (max concentration tested 10000 nM) | 0 | 0.197 | 1.06 | 0 | 0 | 0.72 | 0 | 3.59 ± 0.27 | 0 | 0 | 0 | 0 | 0 | 0 | 0 | 4.11 | 11.8 | 19.4 | 3.26 ± 4.3 | 8.95 | 17.6 | 4.46 | 33.6 ± 5.3 | 5.2
CN[C@@H]1C[C@H]2O[C@@](C)([C@@H]1OC)n1c3ccccc3c3c4c(c5c6ccccc6n2c5c31)C(=O)N[C@H]4O [UCN-01] (max concentration tested 10000 nM) | 21.8 | 27.3 | 22.1 | 31.03 ± 0.038 | 26.7 | 27.9 | 27.8 | 32.23 ± 0.17 | 30.9 | 13.8 | 6.62 | 29.4 | 15.9 | 15.35 ± 0.12 | 21.7 | 89.8 | 105 | 100 | 105.6 ± 0.5 | 102 | 104 | 102 | 105 ± 1.4 | 103
CC(C)c1c(C(=O)Nc2ccccc2)c(-c2ccccc2)c(-c2ccc(F)cc2)n1CC[C@@H](O)C[C@@H](O)CC(=O)O [Atorvastatin] (max concentration tested 10000 nM) | 6.47 | 3.73 | 6.74 | 9.93 ± 0.43 | 6.02 | 5.4 | 16.6 | 2.53 ± 0.48 | 19.7 | 2.32 | 0 | 2.9 | 17.1 | 1.46 ± 2.1 | 19.6 | 89.5 | 55.2 | 75.3 | 96.5 ± 1.1 | 80.5 | 69.6 | 97.5 | 41.9 ± 8 | 101
CCS(=O)(=O)c1cccc(-c2cc(C(=O)NC3CCN(C)CC3)c(C)c3[nH]c4ncc(C)cc4c23)c1 [TAK-901] (max concentration tested 1000 nM) | 10.1 | 3.64 | 5.46 | 8.66 ± 0.25 | 3.76 | 7.82 | 7.19 | 1.99 ± 0.39 | 8.24 | 5.81 | 0 | 6.2 | 0.0275 | 0 | 11 | 76.6 | 57.6 | 57.5 | 80.6 ± 2.5 | 70.3 | 69.6 | 63.8 | 23.5 ± 3.2 | 65.6
CS(=O)(=O)OCCCCOS(C)(=O)=O [Busulfan] (max concentration tested 100000 nM) | 2.32 | 0 | 0 | 0 | 0.72 | 0 | 0 | 0 | 0 | 0 | 0 | 0 | 0 | 0 | 0 | 22.8 | 0.917 | 0.44 | -16.5 ± 19 | 17.2 | 3.36 | 8.68 | -7.23 ± 18 | -3.16
CCCCC(=O)OCC(=O)[C@]1(O)Cc2c(O)c3c(c(O)c2[C@@H](O[C@H]2C[C@H](NC(=O)C(F)(F)F)[C@H](O)[C@H](C)O2)C1)C(=O)c1c(OC)cccc1C3=O [Valrubicin] (max concentration tested 5000 nM) | 19.3 | 13.6 | 11.7 | 14.22 ± 0.059 | 14.3 | 13.5 | 14 | 10.19 ± 0.1 | 14.1 | 0 | 0 | 0 | 0 | 0.125 ± 0.18 | 0 | 100 | 97.2 | 97.5 | 94.14 ± 0.67 | 101 | 97.7 | 95.1 | 92.5 ± 2.8 | 98.5
Cn1c(=O)n(-c2ccc(C(C)(C)C#N)cc2)c2c3cc(-c4cnc5ccccc5c4)ccc3ncc21 [Dactolisib] (max concentration tested 1000 nM) | 14.7 | 14.3 | 14.4 | 13.2 ± 0.72 | 13.9 | 17.2 | 19.4 | 15.8 ± 2.9 | 19.4 | 0 | 0.12 | 0 | 0 | 0 | 0 | 63.8 | 64 | 69.8 | 61 ± 0.72 | 61.8 | 67.7 | 75 | 66 ± 2.8 | 78.3
